ChEMBL document CHEMBL1201862, “PubChem BioAssay data set” (2004)
Active and inactive are the calls of the source.

Assays:
[1] = Luminescence Cell-Based Dose Response to Identify Activators of 5'UTR Stem-Loop Driven Prion Protein mRNA Translation in H4-C Neuroglioblastoma Cells. [Related pubchem assays: 1829 (Project Summary), 1814 (Primary HTS)]; format: functional
[2] = Luminescence Cell-Based Dose Response HTS to Identify Activators of Luciferase Translation or Activity in H4 […] Cells. [Related pubchem assays: 1829 (Project Summary), 1814 (Primary HTS)]; format: functional
H4 = assay: Luminescence Cell-Based Dose Response HTS to Identify Activators of 5'UTR Stem-Loop Driven Prion Protein mRNA Translation in H4 Neuroglioblastoma Cells. [Related pubchem assays: 1829 (Project Summary), 1814 (Primary HTS)]; format: functional; conditions: Homo sapiens
[3] = Luminescence Cell-Based Dose Response to Identify Activators of Luciferase Translation or Activity in H4-C Neuroglioblastoma Cells. [Related pubchem assays: 1829 (Project Summary), 1814 (Primary HTS)]; format: functional
[4] = Luminescence Cell-Based Dose Confirmation to Identify Activators of 5'UTR Stem-Loop Driven Alpha-Synuclein mRNA Translation in H4 Neuroglioblastoma Cells. [Related pubchem assays: 1829 (Project Summary), 1814 (Primary HTS)]; format: functional
[5] = biological target: T1, Neuropeptide Y receptor type 1 (Homo sapiens, UniProt P25929); format: functional;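 also: HEK293 cells with a CNG channel challenged with NPY then isoproterenol; potency as antagonist that reverses NPY suppression of cAMP signal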
T1 sequence (P25929 whole entry): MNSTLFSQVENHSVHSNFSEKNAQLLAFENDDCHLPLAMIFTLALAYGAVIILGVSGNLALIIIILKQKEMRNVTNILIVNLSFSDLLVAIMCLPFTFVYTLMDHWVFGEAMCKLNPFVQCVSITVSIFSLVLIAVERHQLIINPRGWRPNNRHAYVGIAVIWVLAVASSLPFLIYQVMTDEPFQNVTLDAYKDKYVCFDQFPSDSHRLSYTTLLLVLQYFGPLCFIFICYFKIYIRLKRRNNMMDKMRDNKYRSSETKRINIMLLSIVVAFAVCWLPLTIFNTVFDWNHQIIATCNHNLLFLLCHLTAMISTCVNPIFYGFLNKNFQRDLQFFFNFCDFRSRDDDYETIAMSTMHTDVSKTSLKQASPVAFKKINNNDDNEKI

[6] = biological target: T2, Neuropeptide Y receptor type 2 (Homo sapiens, UniProt P49146); format: functional, cell-based;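 also: HEK293 cells expressing the receptor and a CNG channel; stimulus was NPY near EC95 followed by isoproterenol to raise cAMP; antagonist potency measured as restoring cAMP signal that NPY suppresses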
T2 sequence (P49146 whole entry): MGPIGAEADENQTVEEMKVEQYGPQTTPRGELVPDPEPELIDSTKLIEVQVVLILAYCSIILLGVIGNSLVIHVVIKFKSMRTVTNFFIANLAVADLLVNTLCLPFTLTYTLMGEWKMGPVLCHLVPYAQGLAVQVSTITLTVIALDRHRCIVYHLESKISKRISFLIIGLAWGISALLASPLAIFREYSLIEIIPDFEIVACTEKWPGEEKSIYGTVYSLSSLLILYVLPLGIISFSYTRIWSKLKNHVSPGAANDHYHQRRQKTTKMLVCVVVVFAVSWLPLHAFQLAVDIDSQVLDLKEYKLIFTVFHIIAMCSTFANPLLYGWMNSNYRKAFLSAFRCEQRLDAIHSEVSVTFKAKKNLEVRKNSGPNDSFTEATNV

[7] = biological target: Aryl hydrocarbon receptor (Homo sapiens, UniProt P35869); assay: Luminescence-based cell-based high throughput dose response assay for activators of the Aryl Hydrocarbon Receptor (AHR). [Related pubchem assays: 2796 (Primary screen (AHR activators in singlicate)), 2845 (Confirmation screen (AHR activators in triplicate)), 434939 (Counterscreen (PXR activators in triplicate)), 2804 (Summary (AHR activators))]; format: ADME
Trypsin = Trypsin (Sus scrofa, UniProt P00761); assay: trypsin protease activity blockade – biochemical, quenched peptide fluorescence, cherry-pick, selectivity assay for Rce1 protease inhibitor project, dose response (AID 488789)
CAAX prenyl protease 2 [8] = biological target: T3, CAAX prenyl protease 2 (Saccharomyces cerevisiae S288c, UniProt Q03530); format: biochemical
T3 sequence (Q03530 whole entry): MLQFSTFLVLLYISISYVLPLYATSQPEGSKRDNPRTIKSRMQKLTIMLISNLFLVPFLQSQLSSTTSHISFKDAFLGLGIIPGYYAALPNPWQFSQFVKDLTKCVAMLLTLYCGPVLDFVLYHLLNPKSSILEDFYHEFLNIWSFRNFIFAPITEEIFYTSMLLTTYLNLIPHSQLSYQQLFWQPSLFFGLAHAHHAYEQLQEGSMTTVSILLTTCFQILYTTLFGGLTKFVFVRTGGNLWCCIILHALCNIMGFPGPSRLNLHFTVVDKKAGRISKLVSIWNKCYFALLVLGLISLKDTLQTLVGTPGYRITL

CAAX prenyl protease 2 [9] = biological target: T4, CAAX prenyl protease 2 (Homo sapiens, UniProt Q9Y256); assay: inhibition of Ras-converting CAAX protease Rce1 – biochemical, yeast membranes, quenched-peptide fluorescence, cherry-pick, dose response (AID 588849)
T4 sequence (Q9Y256 whole entry): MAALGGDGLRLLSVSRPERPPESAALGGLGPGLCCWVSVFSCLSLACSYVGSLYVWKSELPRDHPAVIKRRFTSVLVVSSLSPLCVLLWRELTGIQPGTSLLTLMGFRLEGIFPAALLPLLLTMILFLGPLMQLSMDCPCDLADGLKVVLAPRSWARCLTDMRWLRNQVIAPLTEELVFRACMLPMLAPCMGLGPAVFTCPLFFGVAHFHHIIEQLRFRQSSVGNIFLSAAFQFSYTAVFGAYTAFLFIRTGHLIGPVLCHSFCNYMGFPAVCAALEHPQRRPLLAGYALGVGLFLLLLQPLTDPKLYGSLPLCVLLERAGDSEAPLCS

[10] = biological target: T5, DNA repair and recombination protein RAD54-like (Homo sapiens, UniProt Q92698); assay: RAD54 Holliday junction migration blockers – biochemical, fluorescence, cherry-picked samples, dose series, confirmation (AID 651657); format: functional
T5 sequence (Q92698 whole entry): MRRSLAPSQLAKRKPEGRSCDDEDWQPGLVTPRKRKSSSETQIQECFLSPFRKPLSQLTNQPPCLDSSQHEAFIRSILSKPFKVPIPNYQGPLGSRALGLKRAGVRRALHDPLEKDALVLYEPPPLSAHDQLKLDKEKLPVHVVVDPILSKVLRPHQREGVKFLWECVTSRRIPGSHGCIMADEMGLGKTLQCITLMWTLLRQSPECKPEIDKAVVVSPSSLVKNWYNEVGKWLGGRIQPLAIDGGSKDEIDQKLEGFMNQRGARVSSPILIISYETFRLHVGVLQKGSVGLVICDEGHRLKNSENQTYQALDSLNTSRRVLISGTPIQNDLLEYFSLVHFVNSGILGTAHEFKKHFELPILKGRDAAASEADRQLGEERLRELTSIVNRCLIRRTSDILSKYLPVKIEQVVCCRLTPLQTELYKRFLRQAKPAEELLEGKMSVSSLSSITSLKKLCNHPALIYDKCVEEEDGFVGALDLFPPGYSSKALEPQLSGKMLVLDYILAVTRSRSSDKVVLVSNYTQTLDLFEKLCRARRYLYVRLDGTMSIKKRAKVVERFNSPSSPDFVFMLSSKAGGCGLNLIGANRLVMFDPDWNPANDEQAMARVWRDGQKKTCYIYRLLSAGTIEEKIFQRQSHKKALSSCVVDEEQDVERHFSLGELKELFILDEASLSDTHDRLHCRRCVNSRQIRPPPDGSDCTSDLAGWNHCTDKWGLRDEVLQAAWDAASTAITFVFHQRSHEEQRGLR

[11] = biological target: T6, DNA repair protein RAD52 homolog (Homo sapiens, UniProt P43351); format: functional, biochemical
T6 sequence (P43351 whole entry): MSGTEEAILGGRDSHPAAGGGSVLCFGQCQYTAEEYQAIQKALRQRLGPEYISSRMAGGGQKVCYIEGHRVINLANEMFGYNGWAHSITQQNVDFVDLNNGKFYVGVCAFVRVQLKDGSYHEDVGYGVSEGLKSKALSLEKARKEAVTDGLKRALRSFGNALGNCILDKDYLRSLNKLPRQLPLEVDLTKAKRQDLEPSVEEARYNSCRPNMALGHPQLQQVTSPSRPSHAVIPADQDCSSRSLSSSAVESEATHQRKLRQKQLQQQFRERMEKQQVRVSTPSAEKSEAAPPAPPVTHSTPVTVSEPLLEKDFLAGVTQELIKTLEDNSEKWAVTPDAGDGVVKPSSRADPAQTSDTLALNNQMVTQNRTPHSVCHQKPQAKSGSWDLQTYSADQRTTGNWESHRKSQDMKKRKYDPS

[12] = biological target: Epstein-Barr nuclear antigen 1 (Epstein-Barr virus (strain B95-8) (HHV-4) (Human herpesvirus 4), UniProt P03211); assay: inhibition of EBV nuclear antigen 1 DNA binding – biochemical, fluorescence polarization, 1536-well, dose response (AID 2381); parameters: species or system human gammaherpesvirus 4;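 also: fluorescence polarization of a Cy5 DNA probe bound by EBNA-1 protein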
[13] = biological target: Lytic switch protein BZLF1 (Epstein-Barr virus (strain B95-8) (HHV-4) (Human herpesvirus 4), UniProt P03206); assay: inhibition of BZLF1 ZTA DNA binding – biochemical, fluorescence polarization, Epstein-Barr virus, 1536-well, counter-screen for EBNA-1 inhibitor project, dose response (AID 2377); parameters: species or system human gammaherpesvirus 4;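 also: fluorescence polarization of Cy5-labelled ZRE DNA probe bound by purified Zta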
[14] = biological target: T7, Short transient receptor potential channel 4 (Mus musculus, UniProt Q9QUQ5); assay: block of DAMGO-driven TRPC4 calcium entry – cell-based, HEK293 TRPC4/mu-opioid, Fluo-4 calcium, dose response (AID 434942); format: functional;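 also: potency of inhibitors blocking the TRPC4 calcium response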
T7 sequence (Q9QUQ5 whole entry): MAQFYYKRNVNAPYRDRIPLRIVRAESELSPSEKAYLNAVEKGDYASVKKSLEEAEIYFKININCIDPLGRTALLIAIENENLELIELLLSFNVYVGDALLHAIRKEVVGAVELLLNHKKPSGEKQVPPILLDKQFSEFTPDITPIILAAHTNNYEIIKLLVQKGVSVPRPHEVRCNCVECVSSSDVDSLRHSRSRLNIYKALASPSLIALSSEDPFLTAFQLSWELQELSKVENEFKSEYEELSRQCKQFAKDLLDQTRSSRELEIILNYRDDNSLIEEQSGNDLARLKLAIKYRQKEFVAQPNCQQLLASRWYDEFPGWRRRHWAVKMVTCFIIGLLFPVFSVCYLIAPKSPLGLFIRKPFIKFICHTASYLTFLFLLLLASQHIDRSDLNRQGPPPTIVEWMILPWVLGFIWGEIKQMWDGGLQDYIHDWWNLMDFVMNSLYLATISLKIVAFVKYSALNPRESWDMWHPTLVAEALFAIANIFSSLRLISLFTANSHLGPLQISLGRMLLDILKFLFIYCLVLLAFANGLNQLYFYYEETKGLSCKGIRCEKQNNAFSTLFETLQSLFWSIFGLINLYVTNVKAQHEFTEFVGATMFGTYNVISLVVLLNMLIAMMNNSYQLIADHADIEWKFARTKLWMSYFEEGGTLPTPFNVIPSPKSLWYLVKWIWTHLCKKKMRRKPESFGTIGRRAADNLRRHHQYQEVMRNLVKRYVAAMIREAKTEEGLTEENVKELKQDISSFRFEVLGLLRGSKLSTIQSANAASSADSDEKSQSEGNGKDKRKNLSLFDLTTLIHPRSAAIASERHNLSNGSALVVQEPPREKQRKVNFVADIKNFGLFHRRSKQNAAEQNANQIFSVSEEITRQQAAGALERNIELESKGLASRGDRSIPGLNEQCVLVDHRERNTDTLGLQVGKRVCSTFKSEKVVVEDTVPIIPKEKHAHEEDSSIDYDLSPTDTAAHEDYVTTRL

[15] = biological target: Peroxisome proliferator-activated receptor gamma/Nuclear receptor coactivator 2 (Homo sapiens, UniProt P37231); format: functional;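 also: agonist potency for raising coactivator recruitment to the receptor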
[16] = biological target: Peroxisome proliferator-activated receptor gamma/Nuclear receptor coactivator 1 (Homo sapiens, UniProt P37231); format: functional;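 also: agonist potency as compounds enhance coactivator SRC-1 recruitment to PPARgamma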
[17] = biological target: Peroxisome proliferator-activated receptor gamma/Nuclear receptor coactivator 3 (Homo sapiens, UniProt P37231); format: functional;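 also: agonist potency for raising coactivator recruitment to the receptor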
[18] = biological target: Luciferin 4-monooxygenase (Photinus pyralis, UniProt P08659); assay: Counter Screen for Luciferase-based Assay Positives. [Related pubchem assays: 620, 618, 411 ]
HT-1080 = assay: HT1080 cell viability loss – fluorescence readout (AID 620); format: functional, cell-based; conditions: Homo sapiens
HeLa = assay: ATP-based viability loss in HeLa cells – cell-based, CellTiter-Glo luminescence, cherry-pick samples, cytotoxicity control for MITF activator project, dose response (AID 540259); format: functional; conditions: Homo sapiens

Peroxisome proliferator-activated receptor gamma/Nuclear receptor coactivator 3, sequence (P37231 whole entry): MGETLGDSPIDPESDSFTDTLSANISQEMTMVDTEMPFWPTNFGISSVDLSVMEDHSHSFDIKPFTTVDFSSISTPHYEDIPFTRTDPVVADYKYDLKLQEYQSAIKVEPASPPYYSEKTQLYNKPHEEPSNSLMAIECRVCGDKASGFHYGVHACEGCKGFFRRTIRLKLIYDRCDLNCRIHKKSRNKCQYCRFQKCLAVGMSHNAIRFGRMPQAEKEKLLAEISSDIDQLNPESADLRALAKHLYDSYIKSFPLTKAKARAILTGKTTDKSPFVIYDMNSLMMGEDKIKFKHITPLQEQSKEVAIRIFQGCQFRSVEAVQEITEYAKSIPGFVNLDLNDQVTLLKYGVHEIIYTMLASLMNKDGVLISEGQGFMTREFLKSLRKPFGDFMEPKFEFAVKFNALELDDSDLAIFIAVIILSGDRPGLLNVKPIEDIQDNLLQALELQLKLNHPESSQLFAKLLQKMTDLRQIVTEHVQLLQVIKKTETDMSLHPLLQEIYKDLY
Peroxisome proliferator-activated receptor gamma/Nuclear receptor coactivator 3, sequence (Q9Y6Q9 whole entry, further chain): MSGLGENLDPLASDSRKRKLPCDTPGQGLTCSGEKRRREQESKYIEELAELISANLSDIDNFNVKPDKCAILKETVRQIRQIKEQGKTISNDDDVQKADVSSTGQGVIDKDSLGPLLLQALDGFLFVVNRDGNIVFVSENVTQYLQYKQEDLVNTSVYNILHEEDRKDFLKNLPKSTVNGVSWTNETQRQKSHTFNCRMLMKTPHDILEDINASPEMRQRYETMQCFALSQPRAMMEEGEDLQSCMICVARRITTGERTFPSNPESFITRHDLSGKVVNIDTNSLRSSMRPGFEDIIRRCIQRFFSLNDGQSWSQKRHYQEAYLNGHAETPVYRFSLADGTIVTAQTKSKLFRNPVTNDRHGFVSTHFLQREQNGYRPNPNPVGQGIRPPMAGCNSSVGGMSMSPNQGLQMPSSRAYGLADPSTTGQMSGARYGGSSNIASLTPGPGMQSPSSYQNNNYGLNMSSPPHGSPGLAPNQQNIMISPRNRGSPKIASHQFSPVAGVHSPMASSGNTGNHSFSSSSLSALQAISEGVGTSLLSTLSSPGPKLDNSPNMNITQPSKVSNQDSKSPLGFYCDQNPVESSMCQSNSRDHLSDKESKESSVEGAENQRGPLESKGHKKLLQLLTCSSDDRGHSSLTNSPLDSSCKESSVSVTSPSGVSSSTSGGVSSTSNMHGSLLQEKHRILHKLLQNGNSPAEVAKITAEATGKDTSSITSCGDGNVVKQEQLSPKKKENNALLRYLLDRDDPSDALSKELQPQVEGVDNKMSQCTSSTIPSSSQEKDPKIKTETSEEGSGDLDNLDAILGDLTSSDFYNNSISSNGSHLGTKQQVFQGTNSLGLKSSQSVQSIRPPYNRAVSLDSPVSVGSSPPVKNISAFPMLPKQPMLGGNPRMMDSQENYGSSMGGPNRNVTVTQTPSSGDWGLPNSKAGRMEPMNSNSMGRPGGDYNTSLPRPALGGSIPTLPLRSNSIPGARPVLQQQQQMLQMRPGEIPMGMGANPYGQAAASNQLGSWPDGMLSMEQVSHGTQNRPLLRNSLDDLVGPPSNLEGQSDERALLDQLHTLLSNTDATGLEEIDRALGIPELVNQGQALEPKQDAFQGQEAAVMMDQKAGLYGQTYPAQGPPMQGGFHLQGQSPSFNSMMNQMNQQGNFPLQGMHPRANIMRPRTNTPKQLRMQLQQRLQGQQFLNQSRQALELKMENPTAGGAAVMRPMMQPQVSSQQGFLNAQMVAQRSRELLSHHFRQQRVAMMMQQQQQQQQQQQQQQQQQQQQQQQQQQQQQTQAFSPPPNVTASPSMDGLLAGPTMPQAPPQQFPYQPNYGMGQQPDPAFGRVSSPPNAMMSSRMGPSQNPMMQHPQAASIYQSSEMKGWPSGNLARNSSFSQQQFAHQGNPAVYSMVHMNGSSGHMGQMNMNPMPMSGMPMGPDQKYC
Peroxisome proliferator-activated receptor gamma/Nuclear receptor coactivator 2, sequence (P37231 whole entry): as the sequence (P37231 whole entry) above
Peroxisome proliferator-activated receptor gamma/Nuclear receptor coactivator 2, sequence (Q15596 whole entry, further chain): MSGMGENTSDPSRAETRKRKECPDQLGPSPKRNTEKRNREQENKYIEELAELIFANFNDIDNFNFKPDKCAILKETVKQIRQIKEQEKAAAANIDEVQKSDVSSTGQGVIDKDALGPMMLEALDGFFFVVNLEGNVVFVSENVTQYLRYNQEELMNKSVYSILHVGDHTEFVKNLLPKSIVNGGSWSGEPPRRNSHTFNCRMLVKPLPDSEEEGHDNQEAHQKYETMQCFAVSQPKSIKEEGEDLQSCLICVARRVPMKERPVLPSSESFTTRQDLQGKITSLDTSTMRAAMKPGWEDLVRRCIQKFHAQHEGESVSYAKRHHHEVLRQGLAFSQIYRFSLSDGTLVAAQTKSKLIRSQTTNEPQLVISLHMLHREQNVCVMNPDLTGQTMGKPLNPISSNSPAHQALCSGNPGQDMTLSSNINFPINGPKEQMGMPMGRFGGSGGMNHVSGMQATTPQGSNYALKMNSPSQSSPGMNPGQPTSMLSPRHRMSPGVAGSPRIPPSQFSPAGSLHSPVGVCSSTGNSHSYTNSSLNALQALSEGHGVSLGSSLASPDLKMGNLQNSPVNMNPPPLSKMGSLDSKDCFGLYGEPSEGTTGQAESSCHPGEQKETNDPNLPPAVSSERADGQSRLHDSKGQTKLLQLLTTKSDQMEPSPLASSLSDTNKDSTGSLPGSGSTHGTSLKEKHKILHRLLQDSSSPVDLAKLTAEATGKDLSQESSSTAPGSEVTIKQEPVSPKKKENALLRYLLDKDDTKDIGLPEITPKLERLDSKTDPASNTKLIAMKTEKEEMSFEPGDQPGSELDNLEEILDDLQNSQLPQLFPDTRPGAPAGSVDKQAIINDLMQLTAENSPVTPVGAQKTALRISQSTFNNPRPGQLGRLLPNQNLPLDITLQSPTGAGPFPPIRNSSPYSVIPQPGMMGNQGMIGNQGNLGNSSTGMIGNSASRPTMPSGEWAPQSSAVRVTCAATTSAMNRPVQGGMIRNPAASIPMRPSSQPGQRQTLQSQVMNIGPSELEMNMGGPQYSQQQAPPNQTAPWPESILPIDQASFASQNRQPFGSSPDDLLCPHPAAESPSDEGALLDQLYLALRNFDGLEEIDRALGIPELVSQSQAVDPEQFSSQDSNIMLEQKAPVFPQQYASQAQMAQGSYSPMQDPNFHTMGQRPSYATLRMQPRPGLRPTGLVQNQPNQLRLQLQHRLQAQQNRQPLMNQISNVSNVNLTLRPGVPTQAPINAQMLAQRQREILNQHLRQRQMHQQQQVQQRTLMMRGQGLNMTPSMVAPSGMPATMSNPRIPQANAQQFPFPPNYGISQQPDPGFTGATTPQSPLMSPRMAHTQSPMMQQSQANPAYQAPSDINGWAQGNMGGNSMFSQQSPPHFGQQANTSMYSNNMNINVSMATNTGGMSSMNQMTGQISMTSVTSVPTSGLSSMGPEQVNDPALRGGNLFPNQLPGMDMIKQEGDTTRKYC
Epstein-Barr nuclear antigen 1, sequence (P03211 whole entry): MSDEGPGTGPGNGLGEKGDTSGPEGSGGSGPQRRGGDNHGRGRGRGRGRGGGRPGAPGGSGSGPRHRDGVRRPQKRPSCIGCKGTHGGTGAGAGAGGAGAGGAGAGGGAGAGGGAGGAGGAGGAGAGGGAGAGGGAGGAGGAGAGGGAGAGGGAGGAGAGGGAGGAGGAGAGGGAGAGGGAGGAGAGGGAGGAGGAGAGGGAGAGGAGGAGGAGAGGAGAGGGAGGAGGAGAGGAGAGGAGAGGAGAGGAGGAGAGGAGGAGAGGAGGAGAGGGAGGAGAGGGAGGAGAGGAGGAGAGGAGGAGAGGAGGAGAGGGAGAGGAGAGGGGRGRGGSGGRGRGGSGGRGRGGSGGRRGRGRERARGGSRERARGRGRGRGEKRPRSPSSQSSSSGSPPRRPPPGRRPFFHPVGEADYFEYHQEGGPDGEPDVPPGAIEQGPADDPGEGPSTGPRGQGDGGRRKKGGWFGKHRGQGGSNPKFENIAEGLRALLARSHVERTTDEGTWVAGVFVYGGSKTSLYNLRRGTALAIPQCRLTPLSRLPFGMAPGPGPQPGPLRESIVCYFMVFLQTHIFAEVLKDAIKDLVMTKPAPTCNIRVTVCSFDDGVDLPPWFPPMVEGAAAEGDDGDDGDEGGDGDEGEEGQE
Lytic switch protein BZLF1, sequence (P03206 whole entry): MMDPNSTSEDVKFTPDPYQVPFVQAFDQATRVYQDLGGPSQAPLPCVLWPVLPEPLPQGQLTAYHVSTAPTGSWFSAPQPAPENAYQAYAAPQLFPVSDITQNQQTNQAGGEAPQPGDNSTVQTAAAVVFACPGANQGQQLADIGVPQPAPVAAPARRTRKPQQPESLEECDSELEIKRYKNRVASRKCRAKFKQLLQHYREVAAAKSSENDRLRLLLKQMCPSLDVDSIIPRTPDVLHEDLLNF
Trypsin, sequence (P00761 whole entry): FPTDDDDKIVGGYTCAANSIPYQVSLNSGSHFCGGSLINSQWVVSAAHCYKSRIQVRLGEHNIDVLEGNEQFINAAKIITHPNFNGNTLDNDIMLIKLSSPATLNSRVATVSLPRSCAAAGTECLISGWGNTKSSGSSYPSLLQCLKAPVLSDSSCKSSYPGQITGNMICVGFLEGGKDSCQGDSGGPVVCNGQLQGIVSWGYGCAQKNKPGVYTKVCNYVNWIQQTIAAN

Cc1nc2cc(Nc3nnc(-c4ccccc4)c4ccccc34)ccc2n1C
EC50 [1]: > 12 µM (not active) | EC50 [2]: < 100 nM (active) | EC50 (H4): 31.4 µM (active) | EC50 [3]: > 12 µM (not active) | EC50 [4]: 2.91 µM (active)

COc1cccc(-c2ccc(C#N)c(SCC(=O)NCCc3ccc(Cl)cc3)n2)c1
IC50 [5]: 4.58 µM (active) | IC50 [6]: 6.45 µM (active)

CN(C)CCCN1C(=O)c2cccc3cccc(c23)C1=O
EC50 [7]: 815 nM (active) | AC50 (Trypsin): 38 µM (active) | AC50 (CAAX prenyl protease 2 [8]): 68.1 µM (active) | AC50 (CAAX prenyl protease 2 [9]): 5.4 µM (active) | AC50 [10]: 11.1 µM (active) | AC50 [11]: 16.4 µM (active)

COc1cccc(N2CC(=O)C(c3nc(O)c4ccccc4n3)=C2N)c1
IC50 [12]: 10.2 µM (not active) | IC50 [13]: > 111 µM (not active) | EC50 [14]: 133 nM (active)

CC1=NN(C(=O)Cn2ccc([N+](=O)[O-])n2)C(O)(C(F)(F)F)C1 (configuration not stated)
EC50 [15]: > 79.4 µM (not active) | EC50 [16]: > 79.4 µM (not active) | EC50 [17]: > 79.4 µM (not active)

CCOC(=O)c1cnc2c(C)c(Cl)ccc2c1N1CCOCC1
EC50 [15]: > 79.4 µM (not active) | EC50 [16]: > 79.4 µM (not active) | EC50 [17]: > 79.4 µM (not active)

c1ccc(-c2cnc(-c3ccccc3)nc2)cc1
EC50 [18]: 14.3 µM (active) | EC50 (HT-1080): > 50 µM (not active)

FC(F)Oc1ccc(/N=C2\SCC3CCCCN23)cc1 (configuration not stated)
EC50 [1]: 1.04 µM (active) | EC50 [2]: < 100 nM (active) | EC50 (H4): 30.2 µM (inconclusive) | EC50 [3]: 0.34 µM (active) | EC50 [4]: 0.405 µM (active) | AC50 (HeLa): 342 µM (active)

O=C(CCCCCn1c(=S)[nH]c2cc3c(cc2c1=O)OCO3)N1CCN(Cc2ccccc2)CC1
IC50 [12]: 14.9 µM (not active) | IC50 [13]: > 111 µM (not active)
